Laboratory results as given in US20240058481A1, “RADIOLABELLED COMPOUNDS FOR DIAGNOSING CHOLINERGIC NEURODEGENERATIVE DISEASES” (CENTRE NATIONAL DE LA RECHERCHE SCIENTIFIQUE, priority 2020, published 2024).

Experiments:
[1] = target: T1, VAChT (Rattus norvegicus, UniProt Q62666); assay: Biodistribution: cerebral accumulation of the tracers in the rat; assay type: in vivo; conditions: for Striatum/cerebellum accumulation ratio / Cerebral accumulation, cerebellum / Cerebral accumulation, striatum: 2 hours after i.v. injection of the tracer; for Cerebral accumulation, cerebellum / Cerebral accumulation, striatum: ± SEM, n=6/group
T1 construct: The entire brain was sampled and dissected in different regions: cortex, striatum, hippocampus, thalamus and cerebellum; from tissue; host or cells: brain regions of male Wistar rats (in vivo tracer injection, ex vivo counting)
T1 sequence (Q62666 1-530): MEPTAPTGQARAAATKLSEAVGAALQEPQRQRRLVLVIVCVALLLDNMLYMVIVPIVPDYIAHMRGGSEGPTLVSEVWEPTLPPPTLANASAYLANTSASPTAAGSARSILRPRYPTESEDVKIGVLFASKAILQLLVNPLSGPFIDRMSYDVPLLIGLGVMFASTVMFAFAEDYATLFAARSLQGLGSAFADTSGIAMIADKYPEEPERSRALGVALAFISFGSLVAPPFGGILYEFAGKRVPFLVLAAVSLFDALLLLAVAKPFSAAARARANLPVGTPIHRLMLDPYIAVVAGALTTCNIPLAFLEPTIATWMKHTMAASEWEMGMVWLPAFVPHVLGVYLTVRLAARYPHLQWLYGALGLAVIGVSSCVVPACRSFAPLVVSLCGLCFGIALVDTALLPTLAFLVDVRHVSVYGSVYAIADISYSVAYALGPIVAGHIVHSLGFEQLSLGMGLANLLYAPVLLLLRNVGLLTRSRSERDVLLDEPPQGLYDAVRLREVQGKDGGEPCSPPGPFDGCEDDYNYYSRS
Protocol: Animals: The experiments were conducted in male rates of Wistar strain weighing 250-300 g (Breeding Centre R. Janvier, Le Genest St Isle, France). All procedures were carried out paying heed to European regulations on animal experimentation (2010/63/EU) with authorisation from the regional ethics committee on animal experiments: Comité Régional d'Ethique en Expérimentation Animale.
Biodistribution studies: The rats in the control group were given an i.v. injection of tracer (4-6 MBq in 0.3 mL) under isoflurane gas anaesthesia (n=6/group). In the VES group (n=6/group), injection of the tracer was preceded (5 min) by an i.v. injection of vesamicol (0.5 μmol/kg). The rats were sacrificed by decapitation 2 h after injection of the tracer. The entire brain was sampled and dissected in different regions: cortex, striatum, hippocampus, thalamus and cerebellum. Blood and bone fractions were also sampled. The biological samples were weighed, the radioactivity thereof was measured with a γ counter (2480 Gamma counter Wizard, Perkin Elmer), and the percentage of injected dose/g of tissue (% ID/g) was calculated.

[2] = target: T1, VAChT; assay: Radioligand ([3H]vesamicol) binding on rat brain membrane preparation, affinity for VAChT; conditions: rat brain membranes, mean ± standard deviation of 3 independent experiments, Cheng & Prussoff
Protocol: Measurement of the affinity of the different compounds for VAChT was obtained by radioligand binding method on rat brain membrane preparation, following the method described in Scheunemann et al. (Bioorg Med Chem 2004;12:1459-65). The L-(−)-vesamicol was supplied by Sigma Aldrich (Saint-Quentin-Fallavier, France) and [^3H]vesamicol (specific activity 1705.7 GBq/mmol) by Perkin-Elmer (Courtaboeuf, France). The IC50 values were determined graphically for each compound and Ki (inhibition constant) was calculated following the method of Cheng & Prussoff (Biochemical pharmacology 1973;22:3099-108). The results are expressed as a mean of Ki values±standard deviation from the mean after 3 independent experiments.

OC1Cc2cccc(F)c2CC1N1CCC(c2ccccc2)CC1 (racemic) [rac (+/−)-5-FBVM Trans, 5-Fluoro-3-(4-phenylpiperidin-1-yl)-1,2,3,4-tetrahydronaphthalen-2-ol]
In vivo stability ([1]; in vivo PET tracer in the rat): good
Passing through the blood-brain barrier ([1]; in vivo PET tracer in the rat): excellent
Ki [2]: 1.3 nM

OC1Cc2cccc(OCCF)c2CC1N1CCC(c2ccccc2)CC1 (single isomer, unassigned; (-)) [(−)-FEOBV, 5-fluoroethoxybenzovesamicol, reference compound]
Ki [2]: 61 ± 2.8 nM

O[C@H]1Cc2cccc(F)c2C[C@@H]1N1CCC(c2ccccc2)CC1 [(+)-(S,S)-5-FBVM. E2, (2S,3S)-5-Fluoro-3-(4-phenylpiperidin-1-yl)-1,2,3,4-tetrahydronaphthalen-2-ol]
Ki [2]: 35 nM

O[C@H]1Cc2cccc([18F])c2C[C@@H]1N1CCC(c2ccccc2)CC1 [(+)-(S,S)-5-[^18F]FBVM ^18F E2]
Striatum/cerebellum accumulation ratio ([1]; rat): 1.52
Cerebral accumulation, cerebellum ([1]; rat): 0.215 ± 0.011 % ID/g
Cerebral accumulation, striatum ([1]; rat): 0.327 ± 0.015 % ID/g

O[C@@H]1Cc2cccc(F)c2C[C@H]1N1CCC(c2ccccc2)CC1 [(−)-(R,R)-5-FBVM E1, (2R,3R)-5-Fluoro-3-(4-phenylpiperidin-1-yl)-1,2,3,4-tetrahydronaphthalen-2-ol]
Ki [2]: 0.9 nM

O[C@@H]1Cc2cccc([18F])c2C[C@H]1N1CCC(c2ccccc2)CC1 [(−)-(R,R)-5-FBVM ^18F E1]
Striatum/cerebellum accumulation ratio ([1]; rat): 5.84
Cerebral accumulation, cerebellum ([1]; rat): 0.232 ± 0.017 % ID/g
Cerebral accumulation, striatum ([1]; rat): 1.356 ± 0.069 % ID/g
Reduction of accumulation in the striatum after (−)vesamicol pre-administration ([1]; rat, (−)vesamicol 0.5 μmole/kg, 5 minutes before injection of the tracer): 46%

OC1Cc2cccc(OCCF)c2CC1N1CCC(c2ccccc2)CC1 (stereo not shown) [[^18F]FEOBV, 5-fluoroethoxybenzovesamicol, reference compound]
Striatum/cerebellum accumulation ratio ([1]; rat): 3.59
Cerebral accumulation, cerebellum ([1]; rat): 0.844 ± 0.025 % ID/g
Cerebral accumulation, striatum ([1]; rat): 0.235 ± 0.011 % ID/g
